biological target: T1, Histone-lysine N-methyltransferase NSD2 (Homo sapiens, UniProt O96028); assay: Inhibition of recombinant human NSD2 (941 to 1240 residues) using unmethylated histone H3 as substrate incubated for 40 mins in the presence of SAM and nucleosomes by AlphaLISA method
T1 sequence (O96028 whole entry): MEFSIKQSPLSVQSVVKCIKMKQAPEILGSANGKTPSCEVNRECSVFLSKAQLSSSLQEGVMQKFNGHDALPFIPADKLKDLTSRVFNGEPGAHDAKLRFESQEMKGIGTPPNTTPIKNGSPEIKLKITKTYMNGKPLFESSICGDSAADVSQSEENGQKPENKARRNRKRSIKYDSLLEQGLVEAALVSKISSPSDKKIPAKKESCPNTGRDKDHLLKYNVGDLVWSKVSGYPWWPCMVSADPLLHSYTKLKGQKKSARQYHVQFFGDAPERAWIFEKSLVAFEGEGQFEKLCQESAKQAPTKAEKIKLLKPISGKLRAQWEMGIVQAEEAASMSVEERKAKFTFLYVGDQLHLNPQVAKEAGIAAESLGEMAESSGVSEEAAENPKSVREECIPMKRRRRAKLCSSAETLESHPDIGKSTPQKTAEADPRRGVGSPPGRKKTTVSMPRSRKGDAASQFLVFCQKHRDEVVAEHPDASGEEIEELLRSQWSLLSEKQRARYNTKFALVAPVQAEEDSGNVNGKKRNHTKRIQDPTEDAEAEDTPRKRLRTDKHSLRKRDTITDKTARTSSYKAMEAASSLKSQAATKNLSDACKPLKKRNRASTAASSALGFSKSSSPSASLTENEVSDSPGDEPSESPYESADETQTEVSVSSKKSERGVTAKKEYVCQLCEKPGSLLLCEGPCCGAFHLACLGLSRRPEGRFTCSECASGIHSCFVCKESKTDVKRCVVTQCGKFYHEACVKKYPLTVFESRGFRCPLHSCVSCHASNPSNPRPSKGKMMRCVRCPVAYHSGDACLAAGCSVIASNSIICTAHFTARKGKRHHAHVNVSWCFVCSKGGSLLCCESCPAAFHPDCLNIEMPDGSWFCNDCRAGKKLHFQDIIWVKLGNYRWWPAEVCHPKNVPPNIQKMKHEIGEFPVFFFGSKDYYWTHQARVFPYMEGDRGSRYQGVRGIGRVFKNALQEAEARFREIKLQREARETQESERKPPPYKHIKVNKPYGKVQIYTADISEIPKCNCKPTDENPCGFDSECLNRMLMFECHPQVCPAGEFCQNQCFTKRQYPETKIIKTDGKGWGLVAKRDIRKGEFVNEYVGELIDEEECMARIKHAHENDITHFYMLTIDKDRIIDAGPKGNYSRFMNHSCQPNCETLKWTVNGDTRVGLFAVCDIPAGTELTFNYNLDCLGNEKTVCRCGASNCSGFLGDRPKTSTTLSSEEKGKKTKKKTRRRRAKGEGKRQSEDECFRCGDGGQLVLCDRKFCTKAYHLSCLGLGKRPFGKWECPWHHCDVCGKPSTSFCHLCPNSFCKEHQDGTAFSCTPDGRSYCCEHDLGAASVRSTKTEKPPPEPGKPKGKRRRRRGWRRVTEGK

Row | SMILES | IC50 [µM]
1 | COc1cc2nc(C#N)nc(NCC3CCN(C)CC3)c2cc1OC | 2.43
2 | COc1ccc2c(NC3CCN(C(C)C)CC3)nc(C#N)nc2c1 | 0.271
3 | COc1cc2nc(C#N)nc(NC3CCOCC3)c2cc1OC | 4.9
4 | COc1cc2nc(C#N)nc(NC3CCN(C(C)=O)CC3)c2cc1OC | 2.78
5 | COc1cc2nc(C#N)nc(NC3CCCCC3)c2cc1OC | 4.57
6 | COc1cc2nc(C#N)nc(NC3CCN(C(=O)OC(C)(C)C)CC3)c2cc1OC | 3.33
7 | CC#CC(=O)NC12CC(NC3=C(Cl)C(=O)c4ncccc4C3=O)(C1)C2 | 0.243
8 | CC(C)N1CCC(Nc2nc(C#N)nc3ccccc23)CC1 | 0.377
9 | COc1cc2nc(C#N)nc(NC3CCCC3)c2cc1OC | > 5
10 | COc1cc2nc(C#N)nc(NC3CCN(C4CCCCC4)CC3)c2cc1OC | 1.2
11 | CCCN1CCC(Nc2nc(C#N)nc3cc(OC)c(OC)cc23)CC1 | 0.569
12 | CCN1CCC(Nc2nc(C#N)nc3cc(OC)c(OC)cc23)CC1 | 1.51
13 | COc1cc2nc(C#N)nc(N3CCN(C)CC3)c2cc1OC | 4.3
14 | COc1cc2nc(C#N)nc(OC3CCN(C)CC3)c2cc1OC | 2.52
15 | COc1cc2nc(C#N)nc(NC3CCNCC3)c2cc1OC | 1.41
16 | COc1cc2nc(C#N)nc(N(C)C3CCN(C)CC3)c2cc1OC | 3.76
17 | COc1cc2nc(C#N)nc(Nc3ccc(N4CCN(C)CC4)cc3)c2cc1OC | 3.15

Compounds with a lower IC50, results first:

Row | IC50 [µM] | SMILES
18 | 0.045 | COc1cc2nc(C#N)nc(NC3CCN(C4CC4)CC3)c2cc1OC
19 | 0.049 | COc1cc2c(NC3CCN(C(C)C)CC3)nc(C#N)nc2cc1OCc1ccccc1
20 | 0.038 | COc1cc2c(NC3CCN(C(C)C)CC3)nc(C#N)nc2cc1OCCCN1CCC(F)(F)C1
21 | 0.204 | COc1cc2nc(C#N)nc(NC3CCN(C)CC3)c2cc1OC
22 | 0.085 | COc1ccc2nc(C#N)nc(NC3CCN(C(C)C)CC3)c2c1
23 | 0.032 | COc1cc2c(NC3CCN(C(C)C)CC3)nc(C#N)nc2cc1OCCCN1CCC(F)(F)CC1
24 | 0.044 | COc1cc2c(NC3CCN(C(C)C)CC3)nc(C#N)nc2cc1OCCN1CCOCC1
25 | 0.029 | COCCOc1cc2nc(C#N)nc(NC3CCN(C(C)C)CC3)c2cc1OC
26 | 0.06 | COc1cc2c(NC3CCN(C(C)C)CC3)nc(C#N)nc2cc1O
